Reference: PMC6143625, “A high throughput screen for next-generation leads targeting malaria parasite transmission” (Nature Communications, 2018)
Read-outs that look alike come from different tables or passages of the source.

How the values were obtained:
[1] = test system: P. falciparum stage V female gametocytes (female gamete formation); assay: P. falciparum dual gamete formation assay (Pf DGFA), female readout (Pfs25 expression), 48 h carry-over format; type: cell-based, Plasmodium falciparum NF54; details: Plasmodium falciparum; for inhibition at 2 µM: primary screen, single replicate
[2] = test system: P. falciparum 3D7 asexual blood stages; assay: Whole-cell time extended asexual growth assay (pLDH); type: cell-based; details: Plasmodium falciparum; for inhibition at 2 µM: primary screen, read-out: %Inh Asex stages @2uM
Protocol: Asexual activity was assayed via Plasmodium lactate dehydrogenase activity (pLDH), a surrogate of asexual parasite growth. […] 2 µM artesunate and DMSO were used as the positive and negative controls, respectively. […] After plate mixing, NBT reduction was measured by absorbance at 650 nm using Envision (Perkin Elmer).

[3] = test system: P. falciparum stage V male gametocytes (male gamete formation); assay: P. falciparum dual gamete formation assay (Pf DGFA), male readout (exflagellation), 48 h carry-over format; type: cell-based, Plasmodium falciparum NF54; details: for IC50 / inhibition at 2 µM: Plasmodium falciparum; for activity in the Pf DGFA: freshly resynthesized compound; for inhibition at 2 µM: primary screen, single replicate
[4] = target: T1, recombinant luciferase (Photinus pyralis) (Photinus pyralis, UniProt P08659); assay: Recombinant luciferase inhibition assay; type: biochemical
T1 construct: purchased Promega E1701
T1 sequence (P08659 whole entry): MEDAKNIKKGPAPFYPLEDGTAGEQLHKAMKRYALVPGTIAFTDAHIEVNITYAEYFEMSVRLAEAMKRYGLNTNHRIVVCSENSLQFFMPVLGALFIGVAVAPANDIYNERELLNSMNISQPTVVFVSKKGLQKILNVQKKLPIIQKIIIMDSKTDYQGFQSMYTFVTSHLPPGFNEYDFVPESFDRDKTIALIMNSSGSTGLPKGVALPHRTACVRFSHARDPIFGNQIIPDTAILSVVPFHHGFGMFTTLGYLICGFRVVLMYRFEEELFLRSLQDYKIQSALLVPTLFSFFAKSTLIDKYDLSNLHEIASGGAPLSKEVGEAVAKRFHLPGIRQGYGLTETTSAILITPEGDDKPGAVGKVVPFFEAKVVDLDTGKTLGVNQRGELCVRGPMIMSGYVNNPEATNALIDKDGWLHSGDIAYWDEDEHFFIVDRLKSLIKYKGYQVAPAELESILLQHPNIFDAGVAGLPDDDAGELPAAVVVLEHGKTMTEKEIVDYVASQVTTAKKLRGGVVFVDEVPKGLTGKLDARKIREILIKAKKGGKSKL
Protocol: A counter-screen to the P. berghei liver stage assay was run against recombinant luciferase (Photinus pyralis) to measure the intrinsic bioluminescence inhibition from select compounds. Briefly, compounds were plated in 12-point serial dose response (50–2.82 × 10^−4 µM) in 1536-well opaque-bottom plates (789173-F, Greiner Bio-One). A 20 pM QuantiLum® Recombinant Luciferase (E1701, Promega) containing solution was made in screening media (DMEM, 11965–092, Invitrogen; 5% FBS, 35–011-CV, Corning; 5x Pen Strep Glutamine, 10378–016, Invitrogen), and 8 µl were added to each well. After 1 h incubation at room temperature, 2 µl of Bright-Glo™ (E2610, Promega) were dispensed per well, and bioluminescence was immediately measured using the EnVision microplate reader (PerkinElmer). DMSO (0.5%) and Luciferase Inhibitor-2 (9.8 µM) (119114, MilliporeSigma) served as negative and positive controls, respectively.

[5] = BPCA vs GHCDL stock of DDD599, adjusted for correct molecular weight, read-out: Pf DGFA female IC50
[6] = profiling / reconfirmation, read-out: Pf asexual IC50
[7] = BPCA vs GHCDL stock of DDD599, adjusted for correct molecular weight, read-out: Pf DGFA male IC50
[8] = SAR, Fig. 6 and Fig. 7, read-out: Male IC50
[9] = 24h preincubation/carry-over, read-out: Pf DGFA Female IC50
[10] = 72h incubation, read-out: Pf Asexual IC50
[11] = dose response retest, 72 h, read-out: IC50 (µM) Asex stages
[12] = 1h incubation, read-out: Recombinant luciferase assay IC50
[13] = 48 h, dose response retest of primary hits, 48 h incubation, read-out: Female IC50
[14] = 48h preincubation/carry-over, read-out: Pf DGFA Female IC50
[15] = SAR, Fig. 7, read-out: Female IC50
[16] = 48 h, dose response retest of primary hits, 48 h incubation, read-out: Male IC50
[17] = 48h preincubation/carry-over, read-out: Pf DGFA Male IC50

Row | SMILES | IC50 [1, 9] [µM] | IC50 [2, 10] [µM] | IC50 [2, 11] [µM] | inhibition at 2 µM ([2]; 72 h) [%] | IC50 [4, 12] [µM] | IC50 [1, 13] [µM] | IC50 [1, 14] [µM] | inhibition at 2 µM ([1]; 48 h incubation) [%] | IC50 [3, 16] [µM] | IC50 [3, 17] [µM] | inhibition at 2 µM ([3]; 48 h incubation) [%] | also measured
1 | O=C(CCl)Nc1ccc(Br)cc1 [BPCA, N-(4-bromophenyl)-2-chloroacetamide] |  |  |  |  |  |  |  |  |  |  |  | IC50 [1, 5]: 11 µM; IC50 [2, 6]: 0.8 µM; IC50 [3, 7]: 1.46 µM; IC50 [3, 8]: 1.42 µM; Selectivity ([3]; parasite selectivity compared to Tox50 in HepG2 cells): 17
2 | CC(=O)c1c(C)nn(CC(=O)Nc2ccc(Br)cc2)c1C [DDD01027599] | > 12.5 | 0.64 | 1.02 | 80.5 | > 50 |  |  |  |  |  |  | IC50 [1, 5]: 3.43 µM; IC50 ([1]; compound resynthesised at GSK, read-out: IC50 against female gametocytes): > 50 µM; IC50 ([2]; compound resynthesised at GSK, read-out: IC50 against asexuals): > 50 µM; IC50 [2, 6]: 0.8 µM; IC50 [3, 7]: 1.38 µM; IC50 ([3]; compound resynthesised at GSK, read-out: IC50 against male gametocytes): > 50 µM; activity in the Pf DGFA [3]: inactive
3 | O=S(=O)(NCC1(O)CCOc2ccccc21)c1ccccc1F (centres unmarked) [DDD01028073] | > 12.5 | > 20 |  |  | > 50 | > 10 | > 12.5 | < 30 | 0.29 | 0.24 | 95 | IC50 [1, 15]: > 12.5 µM; IC50 [3, 8]: 0.34 µM
4 | Cc1ccc(S(=O)(=O)NCC2(O)CCOc3ccccc32)s1 (centres unmarked) [DDD01028074] | > 12.5 | > 20 |  |  | > 50 | > 10 | > 12.5 | < 30 | 0.22 | 0.49 | 101 | IC50 [1, 15]: > 12.5 µM; IC50 [3, 8]: 0.61 µM
5 | O=S(=O)(NCC1(O)CCOc2ccccc21)c1ccc(Cl)s1 (centres unmarked) [DDD01028075] | > 12.5 | > 20 |  |  | > 50 | > 10 | > 12.5 | < 30 | 0.45 | 1.48 | 53.1 | IC50 [1, 15]: > 12.5 µM; IC50 [3, 8]: 0.24 µM
6 | O=S(=O)(NCC1(O)CCOc2ccccc21)c1ccccc1Br (centres unmarked) [DDD01028076] | > 12.5 | > 20 |  |  | > 50 | > 10 | > 12.5 | < 30 | 0.16 | 0.72 | 98.3 | IC50 [1, 15]: > 12.5 µM; IC50 [3, 8]: 0.53 µM
7 | COc1cccc(-n2ccc3nc(N4CCCC4)ncc3c2=O)c1 [DDD01034957] | > 12.5 | 0.17 | 0.72 | 58.1 | 6.7 |  | > 12.5 |  |  | > 12.5 |  | 
8 | O=S(=O)(NCC1(O)CCOc2ccccc21)c1cccs1 (centres unmarked) [DDD01035879] | > 12.5 | > 20 |  |  | > 50 | > 10 | > 12.5 | < 30 | 1.1 | 1.65 | 83.8 | IC50 [1, 15]: > 12.5 µM; IC50 [3, 8]: 0.28 µM
9 | O=S(=O)(NCC1(O)CCOc2ccccc21)c1ccc(Br)s1 (centres unmarked) [DDD01035881] | > 12.5 | 17.5 |  |  | > 50 | > 10 | > 12.5 | < 30 | 0.54 | 0.7 | 102 | IC50 [1, 15]: > 12.5 µM; IC50 [3, 8]: 0.19 µM
10 | Cc1cccc(NC(=O)c2cccc(OCc3nnnn3C)c2)n1 [DDD01038630] | > 12.5 | 1.13 | 0.963 | 84.5 | > 50 |  | > 12.5 |  |  | > 12.5 |  | 
11 | CC(c1ccco1)N(C(=O)CNc1ccc(C#N)cc1)C1CC1 (centres unmarked) [DDD01062645] | > 12.5 | > 20 |  |  | > 50 | > 10 | > 12.5 | < 30 | 0.43 | 2.07 | 96 | 
12 | Cc1ccc(CN(c2cc(C)nc3nc(C(F)(F)F)nn23)C2CC2)cc1 [DDD01063654] | > 12.5 | 0.33 | 0.324 | 73.2 | > 50 |  | > 12.5 |  |  | > 12.5 |  | 
13 | Cc1cc(C)c(CNCC(O)c2ccc(F)c(F)c2)c(C)c1.Cl (centres unmarked) [DDD01065539] | > 12.5 | 0.17 | 0.396 | 91.4 |  |  | > 12.5 |  |  | > 12.5 |  | IC50 [4]: > 50 µM
14 | CC(NCC1CCN(CCO)CC1)c1ccc(OC(F)(F)F)cc1 (centres unmarked) [DDD01073716] | > 12.5 | 10.8 |  |  | > 50 | > 10 | 4.12 | < 30 | 7.09 | 1.43 | 43.9 | 
15 | CN(Cc1cccc(F)c1)C(=O)CS(=O)(=O)Cc1c(Cl)cccc1Cl [DDD01077188] | > 12.5 | 0.63 | 0.764 | 74.2 | > 50 |  | > 12.5 |  |  | > 12.5 |  | 
16 | CN1CCC(NCC(O)c2cccc(OCc3ccccc3)c2)CC1 (centres unmarked) [DDD01079164] | > 12.5 | 7.53 |  |  | > 50 | > 10 | 3.12 | < 30 | 5.75 | 0.92 | 45.7 | 
17 | CNc1cc(C)nc(NC2CCCN(C3Cc4ccccc4C3)C2)n1 (centres unmarked) [DDD01243506] | > 12.5 |  | 1.07 | 97.1 | > 50 |  | > 12.5 |  |  | > 12.5 |  | IC50 [2, 6]: 0.66 µM; IC50 ([4]; read-out: Recombinant luciferase IC50): ≥ 50 µM
18 | OC1(CN2CCC(Oc3cccc(C(F)(F)F)c3)CC2)CCNC1 (centres unmarked) [DDD01245291] | > 25 | 6.66 |  |  | > 50 | 5.78 | 4.13 | < 30 | 3.05 | 1.11 | 48.3 | 
19 | CC(c1cccs1)N(C)Cc1cnc(-c2ccccn2)nc1 (centres unmarked) [DDD01246628] | > 25 | 4.75 |  |  | 4.28 | 5.32 | > 25 | 41.9 | 2.54 | 1.17 | 67.8 | 
20 | CC(C)CN1CCn2nc(CNc3ncnc4[nH]ccc34)cc2C1 [DDD01249504] | > 25 | > 20 |  |  | > 50 | > 10 | > 25 | < 30 | 2.27 | 1.66 | 52.1 | IC50 ([3]; 240 h, resynthesized, aged 10 days at room temperature in the light, read-out: IC50 in Pf DGFA after aging): 0.381 µM; activity in the Pf DGFA [3]: inactive; activity in Pf DGFA after aging ([3]; resynthesized, incubated in the dark at 37 °C): inactive; activity in Pf DGFA ([3]; resynthesized, untreated compound): inactive
21 | CCCn1nccc1C(=O)N1CCN(C2CCc3ccccc3C2)CC1 (centres unmarked) [DDD01251134] | > 12.5 | 1.01 | 0.969 | 58.4 | > 50 |  | > 12.5 |  |  | > 12.5 |  | 
22 | Cc1nn(C)c(Oc2ccc(Cl)cc2)c1CN1CCC(CN)C1 (centres unmarked) [DDD01254274] | > 25 | > 20 |  |  | > 50 | > 10 | > 25 | < 30 | 4.08 | 2.25 | 53.1 | 
23 | CCc1ccc(C2c3nc[nH]c3CCN2Cc2nccn2CC)nc1 (centres unmarked) [DDD01254473] | > 25 | > 20 |  |  | > 50 | 2.79 | 0.167 | 30.5 | > 10 | 3.96 | < 30 | 
24 | CCOc1ccc2ccccc2c1CNCC1CCNCC1.Cl.Cl [DDD01255740] | > 25 | 3.56 |  |  | > 50 | > 10 | 1.88 | < 30 | 4.4 | 0.41 | 35.6 | 
